From US20130165455A1, “TLR AGONISTS” (The Regents of The University of California, priority 2005, published 2013)

System: C57BL/6 mice
Assay: Serum cytokine levels in C57BL/6 mice after i.v. injection (Luminex)
Format: in vivo
Conditions: 0.1 micromole SM-360320 or equivalent amount UC-1V150/MSA (500 μg MSA per mouse), FIG. 5
Procedure: FIGS. 5A, 5B, 5C, and 5D illustrate the increased potency and duration of effect of UC-1V150/MSA. C57BL/6 mice were injected (i.v.) with (A) 0.1 micromole of SM-360320, a TLR7 ligand, or (B) equivalent amount of a TLR7 agonist UC-1V150 (aldehyde-modified SM-360320) or UC-1V150/MSA to 500 μg MSA per mouse. Serum samples were collected at the indicated time points and cytokine levels were analyzed by Luminex. MSA=mouse serum albumin. The effect from the original TLR7 ligand, SM-360320, lasted for only 2 hours whereas UC-1V150/MSA has extended the effect to at least 6 hours.
FIGS. 7A and 7B illustrates an increased potency of UC-1V150/MSA. C57BL/6 mice were i.v. injected with 380 nmole of SM-360320 or UC-1V150, or 500 μg of UC-1V150/MSA (equivalent to 3.8 nmole UC-1V150) per mouse. Serum samples were collected after 2 h and cytokine levels were analyzed by Luminex. To achieve the similar effect, at least 100-fold higher concentration of either UC-1V150 or SM-360320 was required as compared to that of UC-1V150/MSA.

In the case of `COCCOc1nc(N)c2[nH]c(=O)n(Cc3ccccc3)c2n1` [SM-360320], the “duration of effect (serum cytokine levels)” value is reported as 2 h.
